Measured values as given in PubChem BioAssay AID330 (DTP/NCI, 2004).
Where “and” joins values, the source holds several entries; their conditions need not be identical. Equal entries are not always repeated. Inconclusive results and toxic doses are left out.

Tested on: P388 leukemia ip, CD2F1 mice, survival T/C
Test: NCI In Vivo Anticancer Drug Screen. Data for tumor model P388 Leukemia (intraperitoneal) in CD2F1 (CDF1) mice
Conditions: endpoint: median survival time, higher = longer survival
Procedure, shortened: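 Mice carrying the transplanted tumor received test compound or vehicle. Survival was recorded in each group, and the value is the treated-group measurement divided by that of the vehicle-treated control group.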

[1] = dose: 50.0 mg/kg/injection, schedule: Q01DX009 (ip), vehicle: saline with Tween-80
[2] = dose: 100.0 mg/kg/injection, schedule: Q01DX009 (ip), vehicle: saline with Tween-80
[3] = dose: 200.0 mg/kg/injection, schedule: Q01DX009 (ip), vehicle: saline with Tween-80
[4] = dose: 50.0 mg/kg/injection, schedule: Q01DX005 (ip), vehicle: saline with Tween-80
[5] = dose: 100.0 mg/kg/injection, schedule: Q01DX005 (ip), vehicle: saline with Tween-80
[6] = dose: 200.0 mg/kg/injection, schedule: Q01DX005 (ip), vehicle: saline with Tween-80
[7] = dose: 60.0 mg/kg/injection, schedule: Q01DX005 (ip), vehicle: Klucel (hydroxypropylcellulose) (HPC)
[8] = dose: 120.0 mg/kg/injection, schedule: Q01DX005 (ip), vehicle: Klucel (hydroxypropylcellulose) (HPC)
[9] = dose: 240.0 mg/kg/injection, schedule: Q01DX005 (ip), vehicle: Klucel (hydroxypropylcellulose) (HPC)
[10] = dose: 25.0 mg/kg/injection, schedule: Q01DX009 (ip), vehicle: saline with Tween-80
[11] = dose: 50.0 mg/kg/injection, schedule: Q01DX005 (ip), vehicle: Klucel (hydroxypropylcellulose) (HPC)
[12] = dose: 200.0 mg/kg/injection, schedule: Q01DX005 (ip), vehicle: Klucel (hydroxypropylcellulose) (HPC)
[13] = dose: 50.0 mg/kg/injection, schedule: Q04DX003 (ip), vehicle: saline with Tween-80
[14] = dose: 100.0 mg/kg/injection, schedule: Q04DX003 (ip), vehicle: saline with Tween-80
[15] = dose: 200.0 mg/kg/injection, schedule: Q04DX003 (ip), vehicle: saline with Tween-80

Question: What does the source list for C[n+]1c(-c2cccc3ccccc23)c2cc([N+](=O)[O-])ccc2c2ccccc21?
Answer: T/C (dose: 4.0 mg/kg/injection, schedule: Q01DX009 (ip), vehicle: Klucel (hydroxypropylcellulose) (HPC)): 114 % of control; T/C (dose: 8.0 mg/kg/injection, schedule: Q01DX009 (ip), vehicle: Klucel (hydroxypropylcellulose) (HPC)): 115 % of control; T/C (dose: 8.0 mg/kg/injection, schedule: Q04DX003 (ip), vehicle: Klucel (hydroxypropylcellulose) (HPC)): 98 % of control; T/C (dose: 16.0 mg/kg/injection, schedule: Q01DX009 (ip), vehicle: Klucel (hydroxypropylcellulose) (HPC)): 119 % of control; T/C (dose: 16.0 mg/kg/injection, schedule: Q04DX003 (ip), vehicle: Klucel (hydroxypropylcellulose) (HPC)): 108 % of control; T/C (dose: 32.0 mg/kg/injection, schedule: Q01DX009 (ip), vehicle: Klucel (hydroxypropylcellulose) (HPC)): 114 % of control; T/C (dose: 32.0 mg/kg/injection, schedule: Q04DX003 (ip), vehicle: Klucel (hydroxypropylcellulose) (HPC)): 114 % of control; T/C (dose: 64.0 mg/kg/injection, schedule: Q04DX003 (ip), vehicle: Klucel (hydroxypropylcellulose) (HPC)): 106 % of control

Question: How did the T/C [1] turn out when CC(C)(C)N=C(CCN1CCCCC1)Nc1cccc(Cl)c1 was run?
Answer: 110 % of control

Question: And the T/C [2]?
Answer: 106 % of control

Question: And the T/C [3]?
Answer: 98 % of control

Question: With COc1ccc(CCNC(=O)Nc2ccc(C(C)(C)C)cc2)cc1OC as the molecule, how does the T/C [4] read?
Answer: 101 % of control

Question: What about the T/C [5] of the same molecule?
Answer: 97 % of control

Question: What about the T/C [6] of the same molecule?
Answer: 101 % of control

Question: How did the T/C [7] turn out when CSc1nc(N)c(NS(=O)(=O)c2ccccc2)c(=O)[nH]1 was run?
Answer: 92 % of control

Question: And the T/C [8]?
Answer: 91 % of control

Question: And the T/C [9]?
Answer: 90 % of control

Question: What does the source list for CC1[C@@H]2CC=C3[C@H]4CCC5Cc6nc7c(nc6C[C@@]5(C)C4CC(=O)[C@]32CO[C@]12OC(C)(C)CC2O)CC1CC[C@@H]2C3=C[C@H]4O[C@@]5(O[C@@](C)(CO)C[C@@H]5O)C(C)[C@@]4(O)[C@]3(C)[C@@H](O)CC2[C@]1(C)C7 (some centres undefined)?
Answer: T/C (dose: 0.08 mg/kg/injection, schedule: Q01DX009 (ip), vehicle: saline + alcohol): 86 % of control; T/C (dose: 10.0 micrograms/kg/injection, schedule: Q01DX005 (ip), vehicle: saline + alcohol): 115 % of control and 117 % of control; T/C (dose: 20.0 micrograms/kg/injection, schedule: Q01DX005 (ip), vehicle: saline + alcohol): 114 % of control and 115 % of control; T/C (dose: 80.0 micrograms/kg/injection, schedule: Q01DX005 (ip), vehicle: saline + alcohol): 123 % of control

Question: Which T/C (dose: 6.0 mg/kg/injection, schedule: Q01DX009 (ip), vehicle: saline with Tween-80) does the source give for O=NN(CCBr)C(=O)Nc1ccccc1 here?
Answer: 154 % of control

Question: And the T/C (dose: 12.0 mg/kg/injection, schedule: Q01DX009 (ip), vehicle: saline with Tween-80)?
Answer: 177 % of control

Question: What about the T/C [10] of the same molecule?
Answer: 177 % of control

Question: What about the T/C (dose: 37.5 mg/kg/injection, schedule: Q01DX009 (ip), vehicle: saline with Tween-80) of the same molecule?
Answer: 175 % of control

Question: What about the T/C (dose: 66.0 mg/kg/injection, schedule: Q04DX003 (ip), vehicle: saline) of the same molecule?
Answer: 118 % of control

Question: And the T/C (dose: 100.0 mg/kg/injection, schedule: Q04DX003 (ip), vehicle: saline)?
Answer: 109 % of control

Question: And the T/C (dose: 150.0 mg/kg/injection, schedule: Q04DX003 (ip), vehicle: saline)?
Answer: 100 % of control

Question: Which T/C [4] does the source give for Cc1cc2nc(=O)cc(CCl)n2c(=O)n1C(=O)C(O)C(O)C(O)CO (centres undefined) here?
Answer: 109 % of control

Question: What about the T/C [5] of the same molecule?
Answer: 117 % of control

Question: What about the T/C [6] of the same molecule?
Answer: 113 % of control

Question: Which T/C (dose: 3.12 mg/kg/injection, schedule: Q01DX005 (ip), vehicle: Klucel (hydroxypropylcellulose) (HPC)) does the source give for C=C(C#N)N(C)c1ccccc1 here?
Answer: 94 % of control

Question: And the T/C (dose: 6.25 mg/kg/injection, schedule: Q01DX005 (ip), vehicle: Klucel (hydroxypropylcellulose) (HPC))?
Answer: 111 % of control

Question: What about the T/C (dose: 12.5 mg/kg/injection, schedule: Q01DX005 (ip), vehicle: Klucel (hydroxypropylcellulose) (HPC)) of the same molecule?
Answer: 94 % of control

Question: Which results are given for CC1(C)Nc2cccc3c(N=Nc4ccc(N=Nc5ccccc5)c5ccccc45)ccc(c23)N1?
Answer: T/C [10]: 120 % of control and 95 % of control and 97 % of control; T/C [1]: 101 % of control and 103 % of control and 112 % of control; T/C [2]: 104 % of control and 123 % of control and 91 % of control; T/C [3]: 94 % of control and 95 % of control

Question: Which results are given for O=C(/C=C/c1ccccc1)O[C@@H]1CC2CC1C[C@H]2c1cnc[nH]1 (some centres undefined)?
Answer: T/C (dose: 25.0 mg/kg/injection, schedule: Q04DX002 (ip), vehicle: saline with Tween-80): 100 % of control; T/C (dose: 50.0 mg/kg/injection, schedule: Q04DX002 (ip), vehicle: saline with Tween-80): 101 % of control; T/C (dose: 100.0 mg/kg/injection, schedule: Q04DX002 (ip), vehicle: saline with Tween-80): 92 % of control

Question: CCOC(=O)c1cnc2cc3c(cc2c1Nc1cccc(C)c1C)OCO3 was tested. Which T/C [7] did it give?
Answer: 101 % of control

Question: What about the T/C [8] of the same molecule?
Answer: 101 % of control

Question: What about the T/C [9] of the same molecule?
Answer: 95 % of control

Question: CCCCC(=O)CCCCCCCCC(=O)OCC was tested. Which T/C (dose: 100.0 mg/kg/injection, schedule: Q04DX003 (ip), vehicle: Klucel (hydroxypropylcellulose) (HPC)) did it give?
Answer: 102 % of control

Question: What about the T/C (dose: 200.0 mg/kg/injection, schedule: Q04DX003 (ip), vehicle: Klucel (hydroxypropylcellulose) (HPC)) of the same molecule?
Answer: 103 % of control

Question: And the T/C (dose: 400.0 mg/kg/injection, schedule: Q04DX003 (ip), vehicle: Klucel (hydroxypropylcellulose) (HPC))?
Answer: 95 % of control

Question: What does the source list for CSc1ccnc2cc(Cl)ccc12?
Answer: T/C [11]: 96 % of control; T/C (dose: 100.0 mg/kg/injection, schedule: Q01DX005 (ip), vehicle: Klucel (hydroxypropylcellulose) (HPC)): 106 % of control; T/C [12]: 110 % of control

Question: Which T/C (dose: 12.5 mg/kg/injection, schedule: Q01DX009 (ip), vehicle: Klucel (hydroxypropylcellulose) (HPC)) does the source give for Cc1ccc(-n2c(COc3c(C)cccc3C)n[nH]c2=S)cc1 here?
Answer: 100 % of control

Question: And the T/C (dose: 25.0 mg/kg/injection, schedule: Q01DX009 (ip), vehicle: Klucel (hydroxypropylcellulose) (HPC))?
Answer: 100 % of control

Question: What about the T/C [11] of the same molecule?
Answer: 90 % of control

Question: And the T/C (dose: 50.0 mg/kg/injection, schedule: Q01DX009 (ip), vehicle: Klucel (hydroxypropylcellulose) (HPC))?
Answer: 109 % of control

Question: What about the T/C [12] of the same molecule?
Answer: 89 % of control

Question: With COC(=O)CCc1onc(Br)c1CCl as the molecule, how does the T/C [1] read?
Answer: 110 % of control

Question: What about the T/C [2] of the same molecule?
Answer: 115 % of control

Question: What about the T/C [3] of the same molecule?
Answer: 119 % of control

Question: Which T/C [1] does the source give for N#Cc1ccc(C#N)cc1 here?
Answer: 90 % of control

Question: What about the T/C [13] of the same molecule?
Answer: 91 % of control

Question: What about the T/C [2] of the same molecule?
Answer: 100 % of control

Question: What about the T/C [14] of the same molecule?
Answer: 91 % of control

Question: And the T/C [3]?
Answer: 100 % of control

Question: And the T/C [15]?
Answer: 87 % of control

Question: What does the source list for CC(=N\O)/C(=N/O)c1ccccc1?
Answer: T/C [13]: 106 % of control; T/C [14]: 98 % of control; T/C [15]: 98 % of control; T/C (dose: 400.0 mg/kg/injection, schedule: Q04DX003 (ip), vehicle: saline with Tween-80): 104 % of control

Question: For COc1ccc(N=C2SCC(=O)N2NC(=O)CN2C(=O)c3ccccc3C2=O)cc1, which T/C (dose: 100.0 mg/kg/injection, schedule: Q01DX001 (ip), vehicle: saline with Tween-80) is on record?
Answer: 99 % of control

Question: What about the T/C (dose: 200.0 mg/kg/injection, schedule: Q01DX001 (ip), vehicle: saline with Tween-80) of the same molecule?
Answer: 97 % of control

Question: And the T/C (dose: 400.0 mg/kg/injection, schedule: Q01DX001 (ip), vehicle: saline with Tween-80)?
Answer: 104 % of control

Question: Which results are given for CNC(=O)OCn1cnc(Cl)c1Cl?
Answer: T/C (dose: 50.0 mg/kg/injection, schedule: Q01DX005 (ip), vehicle: saline): 93 % of control; T/C (dose: 100.0 mg/kg/injection, schedule: Q01DX005 (ip), vehicle: saline): 101 % of control; T/C (dose: 200.0 mg/kg/injection, schedule: Q01DX005 (ip), vehicle: saline): 102 % of control

Question: How did the T/C (dose: 12.5 mg/kg/injection, schedule: Q01DX009 (ip), vehicle: other) turn out when CC1(OC(=O)c2ccc(Cl)cc2)CC(C)(C)[N+]([O-])=N1 (centres undefined) was run?
Answer: 103 % of control

Question: What about the T/C (dose: 25.0 mg/kg/injection, schedule: Q01DX009 (ip), vehicle: other) of the same molecule?
Answer: 99 % of control

Question: What about the T/C (dose: 50.0 mg/kg/injection, schedule: Q01DX009 (ip), vehicle: other) of the same molecule?
Answer: 99 % of control

Question: And the T/C (dose: 100.0 mg/kg/injection, schedule: Q01DX009 (ip), vehicle: other)?
Answer: 96 % of control

Question: What about the T/C (dose: 200.0 mg/kg/injection, schedule: Q01DX009 (ip), vehicle: other) of the same molecule?
Answer: 99 % of control
